The text below walks through data of patent US20080089860A1, “Therapeutic compositions and methods useful in treating cancer” (priority 2006, published 2008).

One assay concerns MDA231 cells. Nature of the assay: MDA231 breast cancer cell growth, MTT assay. It counts as cell-based, human. As to conditions: single agent, 50 μg/ml and 100 μg/ml. How it is done: (§1) For cell proliferation assays, cells were grown in 10% FCS culture medium containing various amounts of IFNs and/or sodium stibogluconate in 96 well plates and cultured at 37° C. for 3 or 6 days as indicated. The numbers of viable cells in proliferation assays were determined by MTT assays as described in Phatak et al., J. Immunol. 167, 3391 (2001).

The next assay deals with Renca cells. Nature of the assay: Renca cell growth in culture, MTT assay. As to conditions: SSG 6.25-200 μg/ml, 6 days; listed as SSG. It counts as cell-based, murine. An excerpt:
Renca (Murphy, G. P., and W. J. Hrushesky. 1973. A murine renal cell carcinoma. J Natl Cancer Inst 50:1013), Jurkat (Gillis, S., and J. Watson. 1980. Biochemical and biological characterization of lymphocyte regulatory molecules. V. Identification of an interleukin 2-producing human leukemia T cell line. J Exp Med 152:1709) and WM9 (Forsberg, K., 1. Valyi-Nagy, C. H. Heldin, M. Herlyn, and B. Westermark. 1993. Platelet-derived growth factor (PDGF) in oncogenesis: development of a vascular connective tissue stroma in xenotransplanted human melanoma producing PDGF-BB. Proc Natl Acad Sci USA 90:393) cell lines were obtained from a colleague at the Cleveland Clinic Foundation (CCF) and cultured in RPMI 1640 medium supplemented with 10% fetal calf serum (FCS). […] SSG has been described previously (Yi, T., M. K. Pathak, D. J. Lindner, M. E. Ketterer, C. Farver, and E. C. Borden. 2002. Anticancer activity of sodium stibogluconate in synergy with IFNs. J Immunol 169:5978). For cell growth inhibition assays, cells were cultured in absence or presence of various amounts of SSG for 6 days with viable cells quantified by MTT assays as described elsewhere (Pathak, M. K., and T. Yi. 2001. Sodium stibogluconate is a potent inhibitor of protein tyrosine phosphatases and augments cytokine responses in hemopoietic cell lines. J Immunol 167:3391).
A general note: Formazan colour is commonly taken as a measure of viable cells.

The test system of another assay is Jurkat cells. Nature of the assay: IFN-gamma secretion by Jurkat cells, ELISA. It counts as cell-based, human. Conditions: 16 hrs. How it is done: Jurkat cells were cultured in the absence or presence of various amounts of SSG for 16 hours. The cells and culture medium supernatants were separated by centrifugation (1,000 g, 10 min). The amounts of IFN-gamma in the culture medium supernatants were quantified using an ELISA kit (R.D. system, Minneapolis, Minn.) following the manufacturer's protocol.

Assay [1] relates to A549, Hey, LoVo, SK-N-SH, U251 and DU145 cell lines. Nature of the assay: Growth of human cancer cell lines that express PRLs, MTT assay. As to conditions: 100 μg/ml, day 6. The format is cell-based. How it is done:
NIH3T3 (Yi, et al., Blood 85, 87 (1995)), WM9 (Forsberg, et al., Proc. Nat. Acad. Sci. USA 90, 393 (1993)), DU145 (Mickey, et al., Cancer Res. 37, 4049 (1977)), LoVo (Drewinko, et al., Cancer Res. 36, 467 (1976)), HEY (Buick, et al., Cancer Res. 45, 3668 (1985)), U251 (Yoshida, et al., Cancer 50, 410 (1982)), A549 (Giard, et al., J. Natl. Cancer Inst. 51, 1417 (1973)) and SK-N-SH (Helson, et al., Cancer Res. 35, 2594 (1975)) cell lines have been described and were cultured in RPMI 1640 supplemented with 10% fetal calf serum (FCS). For measurement of sodium stibogluconate effects on cell growth in vitro, cells were cultured in the absence (−) or presence (+) of various amounts of sodium stibogluconate for 6 days with viable cells quantified by MTT assays (Mosmann, J. Immunol. Methods 65, 55 (1983)). Percentages of growth inhibition by sodium stibogluconate were calculated (.+−.x %).

For another assay, the system named is DR cells. Nature of the assay: DR lymphoma cell growth, MTT assay. The format is cell-based, human. Conditions: day 6; single agent at 50 μg/ml and 100 μg/ml. How it is done:
as §1

In the next assay the target is T1, intracellular Flag-PRL-2 (Homo sapiens, UniProt Q12974).
T1 construct: expressed in transfected cells; host or cells: NIH3T3 (pBabepuro, puromycin-selected)
T1 sequence (Q12974 whole entry): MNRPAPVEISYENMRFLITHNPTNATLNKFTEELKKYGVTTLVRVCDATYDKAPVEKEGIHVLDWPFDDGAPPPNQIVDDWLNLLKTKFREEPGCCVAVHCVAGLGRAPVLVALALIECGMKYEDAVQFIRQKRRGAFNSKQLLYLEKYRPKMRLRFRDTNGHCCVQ
Nature of the assay: Immunocomplex PTPase assay, Flag-PRL-2 NIH3T3 transfectants. It counts as cell-based. How it is done:
Immunocomplex PTPase assays were performed to assess the effects of sodium stibogluconate on intracellular PTPases. Cells were untreated or treated with sodium stibogluconate for 5 minutes, washed with fresh medium and then lysed in cold lysis buffer (50 mM Tris, pH 7.4; 150 mM NaCl; 1% NP40; 2 mM PMSF; 20 μg/ml of Aprotinin). The lysates were incubated with an anti-Flag antibody in immunoprecipitation assays. The immunocomplexes were collected with protein G sepharose beads (Pharmacia) and washed in cold lysis buffer for 4 times. […] C. for 18 hrs. 100 µL of malachite green solution (UBI) was added to each reaction prior to measurement of OD660 to quantify the amounts of free phosphate cleaved by the PTPases from the peptide substrate (Pathak et al., J. Imumol. 167, 3391 (2001)). The remaining 10% contents of individual samples were analyzed by SDS-PAGE/Western blotting to quantify the relative amounts of the phosphatase proteins. […]
The effects of sodium stibogluconate on intracellular PTPases were assessed using NIH3T3 or WM9 transfectants. […]

The subject of assay [2] is Stat1 tyrosine phosphorylation. Nature of the assay: IFN-alpha-induced Stat1 tyrosine phosphorylation, Western blotting. It counts as cell-based, human. As for the experimental part: Cell lysates were prepared by lysing cells in cold lysis buffer for 30 min and cleared by centrifuging at 14,000 rpm at 4° C. for 15 min. For SDS-PAGE, cell lysates were mixed with equal volume of 2×SDS-PAGE sample buffer, heated at 90° C. for 5 min and separated in 10% SDS-PAGE gels. Cellular proteins in SDS-PAGE gels were transferred to nitrocellulose membrane (Schleicher & Schuell, Keene, N.H.), blocked in 5% milk, probed with antibodies and detected by using an enhanced chemiluminescence kit (ECL, Amersham, Arlington Heights, Ill.).
On the technique in general: A western blot detects proteins with antibodies after separation by electrophoresis.

“Also recorded” adds a separate entry of the source.

As for `O.O.O.O.O.O.O.O.O.O=C([O-])[C@@H]1[O][Sb]2([O-])([O][Sb]34([OH])[O][C@H]([C@H](O)CO)[C@H]([O]3)[C@H](C(=O)[O-])[O]4)[O][C@H]([C@H](O)CO)[C@@H]1[O]2.[Na+].[Na+].[Na+]` [sodium stibogluconate], the “MDA231 cells in day 6 culture” value in the assay with MDA231 cells is recorded as “killed all cells; also recorded: complete or near complete killing”. Further, the “Renca cell growth in culture” value with Renca cells was “failed to inhibit Renca cell proliferation in culture”. Also, the “IFN-gamma secretion by Jurkat T cells” value in the assay with Jurkat cells is recorded as “increased amounts of IFN-gamma”. Also, the “cell killing of the cell lines” value in assay [1] is “near-complete cell killing”. In addition, the “growth inhibition of DR cells” value in the assay on DR cells is reported as “complete or near complete killing”. Further, the “time required for full removal of effect on intracellular PRL-2 activity” value at intracellular Flag-PRL-2 is “at least 24 hours”. In addition, the “PTPase activity of immunocomplexes from treated Flag-PRL-2 transfectants” value on intracellular Flag-PRL-2 (cells treated 5 min) was “lack of PTPase activity”. Besides, in assay [2], the “IFN-alpha-induced Stat1 tyrosine phosphorylation in WM35 and WiT49-N1 cell lines” value is “failed to enhance”; the “Stat1 tyrosine phosphorylation in DR cells in the absence of IFN-alpha” value was “failed to induce”. Moreover, the “IFN-alpha-induced Stat1 tyrosine phosphorylation in DR cells” value in assay [2] (10 μg/ml, 30 min post-stimulation) was “approximately two folds greater than control”. In addition, the “IFN-alpha-induced Stat1 tyrosine phosphorylation in WM9 and DU145 cell lines” value in assay [2] (5 hours post-stimulation) was “Enhanced”.
